# Assay results taken from PMC10411625, “Rationally designed stapled peptides allosterically inhibit PTBP1–RNA-binding” (Chemical Science, 2023).
# Target: T1, PTBP1 RRM1 (Homo sapiens, UniProt P26599)
# T1 construct: (G41-A163); His tag; made in house; host or cells: E. coli BL21 DE3 RIL
# T1 sequence (P26599 41-163): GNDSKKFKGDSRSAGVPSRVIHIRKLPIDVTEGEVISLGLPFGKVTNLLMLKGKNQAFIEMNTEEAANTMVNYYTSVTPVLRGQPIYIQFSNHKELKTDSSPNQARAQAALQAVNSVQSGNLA
# Experiment: Competitive fluorescence polarization assay, RRM1 and RNA-2
# Format: binding
# Details: Fig. 3C; competitive FP with RNA-2; read-out: P-6 Ki, construct RRM1
# Text: Different PTBP1 variants were used to investigate the mode of action of P-6via competitive FP experiments. As illustrated in Fig. 1A there is a short linker between RRM1 and the α3-helix which also makes contacts with the RNA. It is possible that when P-6 occupies the binding site of the helix, this linker is displaced disrupting its interactions with the RNA and lowering the RNA-binding affinity. To test this, we measured whether P-6 could inhibit RRM1 RNA-binding. […] Therefore, it seems most likely that P-6 inhibits RRM12 via disturbing the coordinated RNA-binding of the two RRM domains. As this is possibly regulated by the helix we tested if the peptide could inhibit RRM12–L151G where the role of the helix is reduced (Fig. 3C and S5 ^†). […] These findings further support a mode of action where P-6 disturbs coordinated RNA-binding by RRM1 and 2. […]
# size exclusion chromatography (Superdex 75 16/60 or 26/60) with SEC buffer (50 mM Tris, 200 mM NaCl). Protein homogeneity was assessed by the size exclusion chromatogram and purity was checked by SDS-PAGE analysis to be >= 90%.
# The gene encoding for SRSF1-RRM12 (1-195) was subcloned into pOPIN-His expression vector and expressed in E. coli BL21 (DE3). […]
# Fluorescence polarization assay with PTBP1 […]
compound,measurement,value
CC(=O)N[C@@H](CC(N)=O)C(=O)N[C@@H](CCC(N)=O)C(=O)N[C@@]1(C)CCCC=CCCCC2(CCCC=CCCC[C@](C)(C(=O)N[C@H](C(=O)N[C@@H](CC(N)=O)C(N)=O)C(C)C)NC(=O)[C@H](CCC(N)=O)NC(=O)[C@H](CC(C)C)NC(=O)[C@H](C)NC2=O)NC(=O)[C@H](CCC(N)=O)NC(=O)[C@H](C)NC(=O)[C@H](CCCNC(=N)N)NC1=O (stereo partly shown) [Peptide P-6],Ki,> 750 µM
